Data on eleven compounds can be found in patent US8039514B2, “Sulfonamide compounds and use thereof” (Asahi Kasei Pharma Corporation, priority 2008, dated 2011).

Structures are written as SMILES.

The assay addresses T1, human calcium-sensing receptor (CaSR) (Homo sapiens, UniProt P41180).
T1 construct: expressed in transfected cells
T1 sequence (P41180 20-1078): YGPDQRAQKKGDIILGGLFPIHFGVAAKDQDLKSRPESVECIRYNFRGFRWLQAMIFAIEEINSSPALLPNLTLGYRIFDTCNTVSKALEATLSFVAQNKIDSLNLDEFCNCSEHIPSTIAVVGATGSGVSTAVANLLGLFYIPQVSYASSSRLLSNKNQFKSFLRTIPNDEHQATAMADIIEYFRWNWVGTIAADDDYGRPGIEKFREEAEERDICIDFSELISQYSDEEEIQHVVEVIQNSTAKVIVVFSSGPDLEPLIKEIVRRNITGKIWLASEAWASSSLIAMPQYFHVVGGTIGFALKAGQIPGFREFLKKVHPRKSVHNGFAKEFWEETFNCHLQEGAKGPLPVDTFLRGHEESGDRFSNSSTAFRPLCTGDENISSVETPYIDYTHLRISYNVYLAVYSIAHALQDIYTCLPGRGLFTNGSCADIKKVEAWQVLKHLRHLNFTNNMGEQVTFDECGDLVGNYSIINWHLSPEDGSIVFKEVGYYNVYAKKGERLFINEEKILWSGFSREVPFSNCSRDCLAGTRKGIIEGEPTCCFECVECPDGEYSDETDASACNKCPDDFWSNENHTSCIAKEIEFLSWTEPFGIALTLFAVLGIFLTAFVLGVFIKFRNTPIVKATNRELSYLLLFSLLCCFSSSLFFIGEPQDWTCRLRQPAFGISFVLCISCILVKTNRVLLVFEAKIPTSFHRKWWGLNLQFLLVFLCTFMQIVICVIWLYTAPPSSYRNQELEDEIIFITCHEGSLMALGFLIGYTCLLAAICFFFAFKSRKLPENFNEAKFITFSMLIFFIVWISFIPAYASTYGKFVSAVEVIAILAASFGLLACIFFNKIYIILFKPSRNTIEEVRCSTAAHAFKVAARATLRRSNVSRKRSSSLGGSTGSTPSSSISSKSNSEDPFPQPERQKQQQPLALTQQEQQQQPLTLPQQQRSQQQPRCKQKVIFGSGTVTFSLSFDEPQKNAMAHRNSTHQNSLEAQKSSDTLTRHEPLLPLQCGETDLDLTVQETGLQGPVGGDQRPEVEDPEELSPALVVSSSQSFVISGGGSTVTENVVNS
In words: intracellular Ca assay, CaSR antagonist activity in HEK293/hCaSR cells. Type of assay: cell-based. The conditions noted are these: Fura2-AM, inhibition of response to calcium chloride ligand solution, read-out: IC50 values according to the intracellular Ca assay (CaSR antagonist activity). The procedure: HEK293 cells stably expressing human calcium-sensing receptor (CaSR) (termed HEK293/hCaSR cells) were used. HEK293/hCaSR cells were cultured in a culture medium [DMEM medium containing 0.5 mg/mL Geneticin, 50 Unit/mL penicillin, 50 μg/mL streptomycin and 10% fetal bovine serum (FBS), all manufactured by Invitrogen] to semiconfluent in an incubator at 37° C. under 5% carbon dioxide atmosphere.
Cultured cells were washed with phosphate buffered saline (PBS(−), manufactured by Dainippon Sumitomo Pharmaceutical Company) which had been prewarmed to 37° C., added with PBS(−) containing 10 mM ethylenediamine tetraacetic acid (EDTA), and then incubated in an incubator at 37° C. for 10 minutes. After adding the culture medium to separate the cells, cell suspension was transferred to a centrifuge tube. Cells were collected by centrifuge at 1,500 rpm for 3 minutes, and resuspended in Ca assay buffer [20 mM HEPES buffer (pH 7.4), 115 mM sodium chloride, 5.4 mM potassium chloride, 0.8 mM magnesium chloride, 0.8 mM calcium chloride, 13.8 mM D(+)-glucose (all manufactured by Wako Pure Chemicals) and 0.1% bovine serum albumin (manufactured by SIGMA)] containing 0.2% Pluronic F-127 (manufactured by Molecular Probes) and […] Fura2-AM (manufactured by DOJINDO LABORATORIES) to obtain a cell suspension of 5×10^6 cells/mL. After incubating at 37° C. for 30 minutes, the cells were washed twice with the Ca assay buffer and suspended in the same buffer to obtain a cell suspension of 1×10^6 cells/60 μL. 60 μL of the cell suspension was aliquoted to each well of a 96 well UV microplate (manufactured by Corning Co.) to give a cell plate.
The test compound was diluted with the Ca assay buffer to five times the final concentration and then 80 μL of the diluted compound was applied to each well of a 96 well round bottomed microplate (manufactured by Corning Co.) to give a sample plate. 80 μL of the Ca assay buffer containing 7.5 mM calcium chloride (i.e., ligand solution) was applied to each well of a 96 well round bottomed microplate to give a ligand plate. Then, thus prepared sample plate, ligand plate, and the cell plate were placed in Functional Drug Screening System (FDSS) 4000 (manufactured by Hamamatsu Photonics K.K.) which had been preswitched on and prewarmed to 37° C. Measurements were then carried out as follows. After incubating the cell plate for 180 seconds, fluorescence intensity was measured every two seconds (excitation wavelength; 340 nm and 380 nm, measurement wavelength; 500 nm). After the measurement for 40 seconds, 20 μL of the test compound solution from the sample plate was added to the cell plate, followed by continuous measurement for 160 seconds. Then, 20 μL of the ligand solution from the ligand plate was added to the cell plate, followed by continuous measurement for 100 seconds.
Amount of change in intracellular Ca concentration is indicated as a peak height of the ratio of the fluorescence intensity with excitation of 340 nm and 380 nm (i.e., fluorescence intensity with excitation at 340 nm/fluorescence intensity with excitation at 380 nm) that is obtained from the difference between the maximum ratio after adding the ligand solution and the ratio before adding the ligand solution. Further, when the peak height obtained from the Ca assay buffer containing no test compound has inhibition ratio of 0% while the peak height obtained from the Ca assay buffer containing no calcium chloride as a ligand solution has inhibition ratio of 100%, inhibition ratio for each test compound (i.e., CaSR antagonist activity) was calculated.
The IC50 is the concentration at which inhibition is half-maximal. As for `CN(C[C@H](O)CNC(C)(C)Cc1ccc2ccccc2c1)S(=O)(=O)c1ccc(-c2cc(C(=O)O)cc([N+](=O)[O-])c2)cc1` [Exp. 3-40, (R)-4′-(N-(2-hydroxy-3-(2-methyl-1-(naphthalen-2-yl)propan-2-ylamino)propyl)-N-methylsulfamoyl)-5-nitrobiphenyl-3-carboxylic acid], the half-maximal inhibitory concentration (IC50) lay within 300 to 1000 nM.

Regarding `CN(C[C@H](O)CNC(C)(C)Cc1ccc2ccccc2c1)S(=O)(=O)c1ccc(-c2ccc(NC(=O)CCC(=O)O)cc2)cc1` [Exp. 3-43, (R)-4-(4′-(N-(2-hydroxy-3-(2-methyl-1-(naphthalen-2-yl)propan-2-ylamino)propyl)-N-methylsulfamoyl)biphenyl-4-ylamino)-4-oxobutanoic acid], the IC50 lay within 1000 to 3000 nM.

`CN(C[C@H](O)CNC(C)(C)Cc1ccc2ccccc2c1)S(=O)(=O)c1ccc(-c2ccccc2C=CC(=O)O)cc1` [Exp. 3-44, (R)-3-(4′-(N-(2-hydroxy-3-(2-methyl-1-(naphthalen-2-yl)propan-2-ylamino)propyl)-N-methylsulfamoyl)biphenyl-2-yl)acrylic acid]: the concentration for half-maximal inhibition (IC50) is 1000 to 3000 nM.

On to `CN(C[C@H](O)CNC(C)(C)Cc1ccc2ccccc2c1)S(=O)(=O)c1ccc(-c2ccc(C(=O)O)c(O)c2)cc1` [Exp. 3-46, (R)-3-hydroxy-4′-(N-(2-hydroxy-3-(2-methyl-1-(naphthalen-2-yl)propan-2-ylamino)propyl)-N-methylsulfamoyl)biphenyl-4-carboxylic acid], for which the IC50 lay within 300 to 1000 nM.

Consider `CN(C[C@H](O)CNC(C)(C)Cc1ccc2ccccc2c1)S(=O)(=O)c1ccc(-c2ccc(SCC(=O)O)cc2)cc1` [Exp. 3-47, (R)-2-(4′-(N-(2-hydroxy-3-(2-methyl-1-(naphthalen-2-yl)propan-2-ylamino)propyl)-N-methylsulfamoyl)biphenyl-4-ylthio)acetic acid], for which the IC50 lay in the range of 300 to 1000 nM.

Take `CN(C[C@H](O)CNC(C)(C)Cc1ccc2ccccc2c1)S(=O)(=O)c1ccc(-c2cc(F)c(C(=O)O)c(F)c2)cc1` [Exp. 3-48, (R)-3,5-difluoro-4′-(N-(2-hydroxy-3-(2-methyl-1-(naphthalen-2-yl)propan-2-ylamino)propyl)-N-methylsulfamoyl)biphenyl-4-carboxylic acid]: the IC50 is at most 300 nM.

Take `CN(C[C@H](O)CNC(C)(C)CC1Cc2ccccc2C1)S(=O)(=O)c1cccc(-c2ccc(C(=O)O)cc2)c1` [Exp. 3-50, (R)-3′-(N-(3-(1-(2,3-dihydro-1H-inden-2-yl)-2-methylpropan-2-ylamino)-2-hydroxypropyl)-N-methylsulfamoyl)biphenyl-4-carboxylic acid]: the IC50 is at most 300 nM.

On to `Cc1ccc(-c2cccc(S(=O)(=O)N(C)C[C@H](O)CNC(C)(C)CC3Cc4ccccc4C3)c2)cc1C(=O)O` [Exp. 3-51, (R)-3′-(N-(3-(1-(2,3-dihydro-1H-inden-2-yl)-2-methylpropan-2-ylamino)-2-hydroxypropyl)-N-methylsulfamoyl)-4-methylbiphenyl-3-carboxylic acid], for which the IC50 lay within 300 to 1000 nM.

With `Cc1cc(-c2cccc(S(=O)(=O)N(C)C[C@H](O)CNC(C)(C)CC3Cc4ccccc4C3)c2)ccc1C(=O)O` [Exp. 3-52, (R)-3′-(N-(3-(1-(2,3-dihydro-1H-inden-2-yl)-2-methylpropan-2-ylamino)-2-hydroxypropyl)-N-methylsulfamoyl)-3-methylbiphenyl-4-carboxylic acid], the concentration for half-maximal inhibition (IC50) lay in the range of 300 to 1000 nM.

`CN(C[C@H](O)CNC(C)(C)CC1Cc2ccccc2C1)S(=O)(=O)c1cccc(-c2ccc(C(=O)O)c(F)c2)c1` [Exp. 3-53, (R)-3′-(N-(3-(1-(2,3-dihydro-1H-inden-2-yl)-2-methylpropan-2-ylamino)-2-hydroxypropyl)-N-methylsulfamoyl)-3-fluorobiphenyl-4-carboxylic acid]: the IC50 is at most 300 nM.

Turning to `CN(C[C@H](O)CNC(C)(C)CC1Cc2ccccc2C1)S(=O)(=O)c1cccc(-c2ccc(C(=O)O)c(Cl)c2)c1` [Exp. 3-54, (R)-3-chloro-3′-(N-(3-(1-(2,3-dihydro-1H-inden-2-yl)-2-methylpropan-2-ylamino)-2-hydroxypropyl)-N-methylsulfamoyl)biphenyl-4-carboxylic acid], the 50% inhibitory concentration (IC50) was at most 300 nM.
